Results as given in paper PMC12881670, “Investigation into ligand selectivity and bias at the formyl peptide receptor family” (The Journal of Pharmacology and Experimental Therapeutics, 2025).
Blank lines part the entries; values can stand above or below the compound they belong to. Where a SMILES comes first, the peptide text is derived from it. Where no end group is shown, it is not given here. [ ]: non-standard residue; d: D form. The star is where a group is joined. Palmitoyl = CCCCCCCCCCCCCCCC(=O)*; 5/6‑FAM = fluorescein

Legend:
[1] = biological target: T1, Hs_FPR2 (Homo sapiens, UniProt P25090); assay: Competition binding of fluorescent WKYMVm, flow cytometry; details: for Max Comp (%): maximum proportion of competition with 10 nM K(5/6-FAM)-WKYMVm, mean, ND = no competition observed
T1 construct: expressed in transfected cells
T1 sequence (P25090 1-351): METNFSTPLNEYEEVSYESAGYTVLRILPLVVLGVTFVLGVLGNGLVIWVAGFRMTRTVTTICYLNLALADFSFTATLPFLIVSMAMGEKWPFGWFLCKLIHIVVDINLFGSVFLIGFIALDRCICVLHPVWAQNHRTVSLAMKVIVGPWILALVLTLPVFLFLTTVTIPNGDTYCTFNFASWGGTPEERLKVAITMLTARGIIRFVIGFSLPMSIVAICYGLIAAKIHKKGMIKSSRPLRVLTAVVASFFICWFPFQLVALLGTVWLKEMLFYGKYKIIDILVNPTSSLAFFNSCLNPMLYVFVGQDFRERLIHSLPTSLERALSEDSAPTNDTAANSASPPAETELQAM
Experimental: (§1) Mean cell fluorescence was then measured for 5000 cells by flow cytometry using either a BD FACScalibur or BD Attune.
(§2) All data were analyzed using GraphPad Prism using the nonlinear regression log(agonist) versus response (3 parameters) function for all assays, except binding, which was analyzed using the One site-FitlogIC50 function. Bias calculations were carried out following IUPHAR guidelines as described,[27]^,[37] and data were presented as the Δ Activity ratio (Log[EmaxB/EC50B])-(Log[EmaxA/EC50A]).

[2] = biological target: T2, Mm_Fpr2 (Mus musculus, UniProt O88536); assay: as above; details: for Max Comp (%): maximum proportion of competition with 10 nM K(5/6-FAM)-WKYMVm
T2 construct: expressed in transfected cells
T2 sequence (O88536 1-351): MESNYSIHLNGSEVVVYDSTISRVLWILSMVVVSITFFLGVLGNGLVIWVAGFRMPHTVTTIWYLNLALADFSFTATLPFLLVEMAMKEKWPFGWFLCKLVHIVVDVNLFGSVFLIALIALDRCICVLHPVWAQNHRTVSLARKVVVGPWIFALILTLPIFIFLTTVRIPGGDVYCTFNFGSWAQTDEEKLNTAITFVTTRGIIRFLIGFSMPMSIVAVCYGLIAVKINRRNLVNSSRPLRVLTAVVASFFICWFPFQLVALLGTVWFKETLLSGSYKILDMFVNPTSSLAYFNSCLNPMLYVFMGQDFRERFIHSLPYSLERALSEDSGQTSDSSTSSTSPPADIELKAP
Experimental: as §1, §2

[3] = biological target: T1, Hs_FPR2; assay: BRET receptor-RLuc8 interaction with Venus-mGsi; format: cell-based
Experimental: (§3) BRET1 assays to measure FPR interaction with Venus-mGsi and Arrestin 3-yellow fluorescent protein (YFP) were performed as previously described.[31]^,[32] Briefly, all FPRs C-terminally fused to Renilla Luciferase (donor, RLuc8) were transiently transfected along with either Venus-mGsi or YFP-Arrestin 3 (acceptor) at a ratio of 1:4. 24 hours post transfection, cells were replated into white-walled, 96-well plates and cultured for a further 24–48 hours. On the day of experimentation, growth media was aspirated and replaced with 80 μl Hanks Buffered Saline Solution and equilibrated for 30 minutes. Coelenterazine h was added to each well to a final concentration of 5 μM for 5 minutes before the addition of each compound, and the plate was incubated for a further 10 minutes at 37 °C before being read on a ClarioStar Plus, with luminescence measured at 480/20 nm (donor) and 530/20 (acceptor). The BRET ratio (acceptor/donor) was determined, and the background (untreated) subtracted to give the N-BRET value.
as §2

[4] = biological target: T2, Mm_Fpr2; assay: BRET receptor-RLuc8 interaction with Venus-mGsi; format: cell-based
Experimental: as §3, §2

[5] = biological target: T1, Hs_FPR2; assay: ERK1/2 phosphorylation by Western blotting; format: cell-based
Experimental: (§4) ERK phosphorylation was detected by Western blotting as previously described.[30] Briefly, HEK293 cells stably expressing FLAG-tagged FPRs were plated into 12-well culture plates until 90% confluent. On the day of the experiment, culture media was replaced with serum-free Dulbecco’s modified Eagle’s medium and incubated for 2 hours before stimulation with the indicated compounds. After 7 minutes, the media was removed and stimulation terminated by the addition of 100 μl sample buffer (0.5% SDS, Tris (pH 6.8), glycerol, at >90 °C).
as §2

[6] = biological target: T2, Mm_Fpr2; assay: ERK1/2 phosphorylation by Western blotting; format: cell-based
Experimental: as §4, §2

[7] = biological target: T1, Hs_FPR2; assay: BRET receptor-RLuc8 interaction with Arrestin 3-YFP; format: cell-based
Experimental: as §3, §2

[8] = biological target: T2, Mm_Fpr2; assay: as above; format: cell-based
Experimental: as §3, §2

[9] = biological target: T2, Mm_Fpr2; assay: Internalization of FLAG-tagged receptors by flow cytometry; format: cell-based; design: Emax: dose or concentration left out as unconfirmed
Experimental: (§5) Internalization of FPRs was measured by flow cytometry.[30] Briefly, cells were incubated with Alexa Fluor 657 conjugated M1 antiflag antibody (Sigma-Aldrich Cat# F3040, RRID:AB_439712) for 30 minutes at 37 °C to label surface receptors. Cells were then incubated with the indicated concentration of ligand before washing in PBS/0.04% EDTA to remove any remaining surface antibody. Remaining fluorescence was then measured using flow cytometry on either a BD FACScalibur or Attune, recording 5000 gated events. […] As a control, some samples were left untreated, and “strip only” was measured as a readout of constitutive endocytosis, and this value was subtracted from the data. Vehicle control (0.1% DMSO) had no effect on internalization of receptors.
as §2

[10] = biological target: T3, Mm_Fpr1 (Mus musculus, UniProt P33766); assay: Competition binding of fluorescent WKYMVm, flow cytometry; details: for Max Comp (%): maximum proportion of competition with 10 nM K(5/6-FAM)-WKYMVm
T3 construct: expressed in transfected cells
T3 sequence (P33766 1-364): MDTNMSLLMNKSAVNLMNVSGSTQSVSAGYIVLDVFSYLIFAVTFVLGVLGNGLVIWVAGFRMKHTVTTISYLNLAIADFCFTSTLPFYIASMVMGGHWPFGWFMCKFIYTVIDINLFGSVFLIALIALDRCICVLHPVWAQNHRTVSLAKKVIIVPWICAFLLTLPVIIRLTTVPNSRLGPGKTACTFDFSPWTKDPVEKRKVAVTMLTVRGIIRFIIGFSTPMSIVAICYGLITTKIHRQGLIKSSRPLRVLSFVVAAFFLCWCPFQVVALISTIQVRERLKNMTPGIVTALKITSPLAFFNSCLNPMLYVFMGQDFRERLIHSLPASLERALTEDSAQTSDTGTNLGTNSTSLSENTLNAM
Experimental: as §1, §2

[11] = biological target: T3, Mm_Fpr1; assay: BRET receptor-RLuc8 interaction with Venus-mGsi; format: cell-based
Experimental: as §3, §2

[12] = biological target: T3, Mm_Fpr1; assay: ERK1/2 phosphorylation by Western blotting; format: cell-based
Experimental: as §4, §2

[13] = biological target: T3, Mm_Fpr1; assay: BRET receptor-RLuc8 interaction with Arrestin 3-YFP; format: cell-based
Experimental: as §3, §2

[14] = biological target: T3, Mm_Fpr1; assay: Internalization of FLAG-tagged receptors by flow cytometry; format: cell-based; design: Emax: dose or concentration left out as unconfirmed
Experimental: as §5, §2

[15] = tested on: formyl peptide receptor family (Hs_FPR1, Hs_FPR2, Mm_Fpr1, Mm_Fpr2); assay: Summary of main findings: receptor subtype selectivity and ligand bias across all readouts; design: species or system human and mouse
Text: To determine ligand bias, a reference ligand is required, that is, “balanced” for the pathways tested.[37] […] We then used measurements of the activity ratio (Log (Emax/EC50)) for each receptor, ligand, and pathway in an attempt to observe any ligand bias (Fig. 6).

[16] = biological target: T1, Hs_FPR2; assay: Internalization of FLAG-tagged receptors by flow cytometry; format: cell-based; design: Emax: dose or concentration left out as unconfirmed
Experimental: Internalization of FPRs was measured by flow cytometry.[30] Briefly, cells were incubated with Alexa Fluor 657 conjugated M1 antiflag antibody (Sigma-Aldrich Cat# F3040, RRID:AB_439712) for 30 minutes at 37 °C to label surface receptors. Cells were then incubated with the indicated concentration of ligand before washing in PBS/0.04% EDTA to remove any remaining surface antibody. Remaining fluorescence was then measured using flow cytometry on either a BD FACScalibur or Attune, recording 5000 gated events. […] As a control, some samples were left untreated, and “strip only” was measured as a readout of constitutive endocytosis, and this value was subtracted from the data.
as §2

[17] = mean, ND = no competition observed
[18] = log of EC50, phosphorylation of ERK1/2, HEK293 stable cells, mean, ND = no pERK signal detected
[19] = log of IC50, competition with 10 nM K(5/6-FAM)-WKYMVm, HEK293 stable cells, on ice 90 min, mean, ND = no competition observed
[20] = log of EC50, mGsi BRET, HEK293 transient, 10 min, mean, ND = no interaction detected
[21] = mGsi BRET, % of response to 1 μM WKYMVm, mean, ND = no interaction detected
[22] = phospho-ERK, % of 1 μM WKYMVm, mean, ND = no pERK signal detected
[23] = Arrestin 3 BRET, % of response to 1 μM WKYMVm, mean, ND = no interaction detected

- IC50 [1]: 5.37 µM
- Max Comp (%) [1]: 100%
- IC50 [2]: 4.2 µM
- Max Comp (%) [2, 17]: 100%
- EC50 [3]: 0.166 µM
- Emax [3]: 19.4%
- Gi interaction, % of that seen with WKYMVm ([3]; only detected at 1 and 10 μM): 20%
- EC50 [4]: 0.166 µM
- Emax [4]: 24.2%
- Emax [5]: 80.8%
- EC50 [5, 18]: 0.0337 µM
- Emax [6]: 141%
- EC50 [6, 18]: 0.0533 µM
- Emax [7]: 25.5%
- EC50 ([7]; read-out: Log EC50 (converted)): 0.282 µM
- EC50 [8]: 0.263 µM
- Emax [8]: 33.4%
- Emax [9]: 12.3%
Compound: CCCCCCCCCCCCCCCC(=O)N[C@@H](CCCCN)C(=O)N[C@H](C(=O)N[C@@H](Cc1c[nH]cn1)C(=O)N[C@@H](CCCCN)C(=O)N[C@@H](CCCCN)C(=O)NCC(=O)N[C@@H](CCSC)C(=O)N[C@H](C(=O)N[C@@H](CCCCN)C(=O)N[C@@H](CO)C(=O)O)[C@@H](C)CC)[C@@H](C)CC [F2Pal10] (Palmitoyl-KIHKKGMIKS-OH)

- Log IC50 (M) [10, 19]: −5.926 M
- Max Comp (%) [10, 17]: 61.39%
- Log IC50 (M) [2, 19]: −6.16 M
- Max Comp (%) [2, 17]: 29.56%
- Log EC50 (M) [11, 20]: −7.09 M
- Emax (%) [11, 21]: 12.62%
- Log EC50 (M) [4, 20]: −6.19 M
- Emax (%) [4, 21]: 73.16%
- Log EC50 (M) [12, 18]: −7.589 M
- Emax (%) [12, 22]: 78.28%
- Log EC50 (M) [6, 18]: −6.775 M
- Emax (%) [6, 22]: 147.8%
- Emax (%) [13, 23]: 39.42%
- Emax (%) [8, 23]: 73.06%
- Log EC50 (M) ([8]; log of EC50, Arrestin 3 BRET, HEK293 transient, 10 min, mean, ND = no interaction detected): −6.20 M
- Emax (%), internalization, Mean ([14]; % of internalization to WKYMVm (1 mM in legend, 1 μM in text), Mm_Fpr1, 30 minutes, ND denotes no internalization measured): 95.95%
- Log EC50 (M), internalization, Mean ([14]; Log EC50, HEK293 stably expressing FLAG-Mm_Fpr1, ligand 30 minutes, ND denotes no internalization measured): −6.155 M
- agonist-induced internalization (words) ([14]; Mm_Fpr1, 30 min, relative to 1 μM WKYMVm): partial agonists
- Emax (%), internalization, Mean ([9]; % of internalization to WKYMVm (1 mM in legend, 1 μM in text), Mm_Fpr2, 30 minutes): 42.90%
- Log EC50 (M), internalization, Mean ([9]; Log EC50, HEK293 stably expressing FLAG-Mm_Fpr2, ligand 30 minutes): −7.063 M
- agonist-induced internalization (words) ([9]; Mm_Fpr2, 30 min, relative to 1 μM WKYMVm): partial agonists
- Bias ([15]; summary grade of ligand bias relative to WKYMVm, key not given): No
- Notes ([15]; summary of main findings, in words): Partial/weak only
Compound: CC(C)c1c(NC(=O)Nc2ccc(Cl)cc2)c(=O)n(-c2ccccc2)n1C [TC-FPR43]

Compound: CSCC[C@H](NC=O)C(=O)N[C@@H](CC(C)C)C(=O)N[C@@H](Cc1ccccc1)C(=O)O [fMLF, fMet-Leu-Phe]
- Max Comp (%) [1]: 3.4%
- IC50 [10]: 3.18 µM
- Max Comp (%) [10, 17]: 45.65%
- Emax [3]: 61.7%
- EC50 [11]: 11.7 µM
- Emax [11]: 59.3%
- EC50 [4]: 26.3 µM
- Emax [4]: 13.2%
- Emax [5]: 40.2%
- Emax [12]: 72.7%
- EC50 [12, 18]: 2.27 µM
- EC50 [13]: 20.9 µM
- Emax [13]: 83.4%
- EC50 [8]: 19.5 µM
- Emax [8]: 22.7%
- Emax [16]: 0.343%
- EC50 [14]: 4.48 µM
- Emax [14]: 92.5%
- Emax [9]: 54.4%

- Kd, saturable binding ([1]; hFPR2, initial studies (not shown)): low nM range
Compound: K(5/6-FAM)-WKYMVm-NH2 (K(5/6‑FAM)WKYMV[dM]-NH2)
